Assay: Binary mixtures of the ε-modification with the α-, β- or γ-modification in methanol and acetone (relative thermodynamic stability)
Assay type: physicochemical

Compound: CO/N=C(\C(=O)N[C@@H]1C(=O)N2C(C(=O)OC(C)OC(C)=O)=C(COC(N)=O)CS[C@H]12)c1ccco1 (stereo partly shown) [ε-modification, cefuroximaxetil]
- thermodynamic stability relative to the other crystalline modifications: more stable than the α-, β- or γ-modification

Source: US20090233899A1, “Crystalline Modification of Cefuroximaxetil” (Gruenenthal GmbH, priority 2006, published 2009)
